Experimental data published in patent US9566307B2, “Pharmaceutical composition” (priority 2012, dated 2017).
Residues, ends and D or L forms follow the SMILES beside them. *: point of attachment. Cbz = O=C(OCc1ccccc1)*; CH2F = FC*

Assays:
[1] = system: T.Tn (esophageal cancer cell line); assay: Effects of various inhibitors to cytotoxicity of EV4 type (1), microscope images; assay type: cell-based, human; settings: EV4 type MOI=0.1, four days after infection, 100 μM Z-VADfmk, 25 μM LY294002, 0.1 μM PD0325901, 1.0 μM bpV, FIG. 2
Procedure: The inhibitors tested to check the effects to the cytotoxicity of EV4 type were Z-VADfmk (R&D System Corporation) as a pan-caspase inhibitor, LY294002 (Santa Cruz Biotechnology Corporation) as a PI3K inhibitor, PD0325901 (Wako Corporation) as an MEK inhibitor, and bpV (Merck Corporation) as a PTEN inhibitor.
T.Tn was disseminated in a plate with 96 wells at 1×10^4 cells/well, and the plate was left stationary under a condition of 37° C. and 5% CO2. The culture medium in the well was replaced with a culture medium added with each inhibitor so as to be 100 μl/well. As to the concentrations of the respective inhibitors, 100 μM for Z-VADfmk, 25 μM for LY294002, 0.1 μM for PD0325901, and 1.0 μM for bpV. After the culture medium was replaced, the plate was left stationary under a condition of 37° C. and 5% CO2 for one hour. After the culture medium was eliminated, 100 μl of the diluted solution of EV4 type diluted with OPTI-MEM I so as to make EV4 type to be MOI=0.1 was added to each well, and was left stationary under a condition of 37° C. and 5% CO2 for one hour. Next, the diluted solution of EV4 type was eliminated, and the RPMI culture media containing the respective inhibitors were added to respective wells, and were co-cultured. Four days after the start of co-culturing, the image of each well was picked up by an optical microscope. Note that the concentration of each inhibitor was set to be a concentration expected not showing a cytotoxicity to T.Tn.

TE8 cells = assay: Effect of MEK inhibitor to cytotoxicity of EV4 type (2), Celltilter-Glo living cell quantitation; assay type: cell-based, human; settings: EV4 type MOI=1.0, PD0325901 50-nM, 48 hours co-culturing, FIG. 3
Procedure: An effect of an MEK inhibitor PD0325901 to the cytotoxicity of EV4 type was quantitatively examined.
TE8 cells was disseminated in a plate with 96 wells at 1×10^4 cells/well, and the plate was left stationary for six hours under a condition of 37° C. and 5% CO2. The culture medium in the well was replaced with a culture medium containing a DMSO solution of PD0325901 of 50-nM. After the culture medium was replaced, the plate was left stationary for one hour under a condition of 37° C. and 5% CO2. After the culture medium was eliminated, 100 μl of EV4 type diluted solution diluted with OPTI-MEM I so as to have MOI=1.0 was added to each well, and the plate was left stationary for one hour under a condition of 37° C. and 5% CO2. For a control, a diluted solution of 100 μl containing no EV4 type was added. Next, the diluted solution was eliminated, and the culture media containing PD0325901 were added to respective wells, and were co-cultured. 48 hours after the start of co-culturing, living cells were quantitated using a Celltilter-Glo (Registered Trademark) kit of Promega corporation.

[2] = system: TE8 tumor indicating a resistivity against CDDP; assay: In vivo antitumor effect of EV4 type to CDDP resistant tumor, tumor volume; parameters: species or system nude mouse; settings: CDDP administered group, 125 μg/administration in abdominal cavity on second day; FIG. 10
Procedure: The tumor refraction performance of EV4 type to a TE8 bearing nude mouse indicating a resistivity against CDDP (also called cisplatin) utilized in chemotherapies for esophageal cancer was examined. A nude mouse was inoculated with TE8 like the fifth example (0th day), and when it was confirmed that the tumor major axis became equal to or greater than 4 mm, CDDP dissolved in a normal saline solution was administered in an abdominal cavity at 125 μg/administration (second day). Note that for a non-treated group, the same amount of normal saline solution was administered. Eight days after the inoculation of TE8, furthermore, an EV4 type solution suspended in OPTI-MEM I of 50 μl was administered in the tumor once per a day and at a total of five times and at 1×10^7 TCID50/administration or 5×10^7 TCID50/administration. For the non-treated group and the CDDP administered group, the same amount of OPTI-MEM I was administered. The evaluation items were the tumor volume and the body weight like the fourth example.

HT29 = assay: Oxaliplatin resistance check, cell survival rate by MTS technique; assay type: cell-based, human; settings: HT29, oxaliplatin 100 μM, 48 hours; FIG. 17
Procedure: (§1) In addition, in order to check the oxaliplatin resistance of, among the test-target cells, WiDr and HT29, respective cell survival rates of WiDr and HT29 after cultured for 48 hours in culture media containing oxaliplatin of a predetermined concentration were evaluated through an MTS technique.

WiDr = assay: as above; assay type: cell-based, human; settings: oxaliplatin 200 μM, 48 hours, FIG. 17
Procedure: as §1

| Compound | Effect of inhibitor on the cytotoxicity by EV4 type [1] | also measured |
| --- | --- | --- |
| O=C(NOC[C@H](O)CO)c1ccc(F)c(F)c1Nc1ccc(I)cc1F [PD0325901] | enhanced | Effect of inhibitor on the cytotoxicity of EV4 type (cell survival rate) (TE8 cells): significantly enhanced |
| COC(=O)C[C@H](NC(=O)[C@H](C)NC(=O)[C@@H](NC(=O)OCc1ccccc1)C(C)C)C(=O)CF [Z-VADfmk] (Cbz-Val-Ala-Asp(OMe)-CH2F) | reduced |  |
| [NH2][Pt]([NH2])([Cl])[Cl] [CDDP, cisplatin] |  | Tumor volume, change with time [2]: suppression of the increase of the tumor volume for eight days, but the increase of the tumor volume was observed thereafter |
| bpV | reduced |  |
| O=C1[O][Pt]2([NH][C@@H]3CCCC[C@H]3[NH]2)[O]C1=O [oxaliplatin] |  | Cell survival rate (HT29): maintained the similar level of cell survival rate to those of the control group; Cell survival rate (WiDr): maintained the similar level of cell survival rate to those of the control group |
| O=c1cc(N2CCOCC2)oc2c(-c3ccccc3)cccc12 [LY294002] | enhanced |  |
